≈ marks a conversion by molar mass, not a printed value.
Columns and labels:
[1] = biological target: S. pneumoniae Topoisomerase IV ATPase (ParE) (Streptococcus pneumoniae serotype 4, UniProt Q59961); test: S. pneumoniae Topoisomerase IV ATPase inhibition; type: biochemical; conditions: values marked * are an average of two or more data points, read-out: % Inh (13 μM) of S. pneumoniae Topoisomerase IV ATPase
Method in brief: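 S. pneumoniae ParE (1.25 nM) ATPase with 160 μM ATP and 5 μg/ml sheared DNA in pH 8.0 Tris, Mg2+, DTT, Brij-35; phosphate detected by malachite green/molybdate at 650 nm. Normalised to 2% DMSO (0%) and 20 μM EDTA (100%); IC50 from 10 concentrations.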

Spy 838 (gram+) = test: Bacterial susceptibility testing in liquid media (MIC); type: cell-based; conditions: Streptococcus pyogenes; lowest concentration reducing growth by 80% or more; 37° C., 24 hrs
From the text: (§1) Compounds may be tested for antimicrobial activity by susceptibility testing in liquid media. Compounds may be dissolved in dimethylsulfoxide and tested in 10 doubling dilutions in the susceptibility assays. The organisms used in the assay may be grown overnight on suitable agar media and then suspended in a liquid medium appropriate for the growth of the organism. The suspension can be a 0.5 McFarland and a further 1 in 10 dilution can be made into the same liquid medium to prepare the final organism suspension in 100 μL. Plates can be incubated under appropriate conditions at 37° C. for 24 hrs prior to reading. The Minimum Inhibitory Concentration (MIC) may be determined as the lowest drug concentration able to reduce growth by 80% or more.

Mca 445 (gram−) = test: as above; type: cell-based; conditions: Moraxella catarrhalis; lowest concentration reducing growth by 80% or more; 37° C., 24 hrs
From the text: as §1

Spn 548 (gram+) = test: as above; type: cell-based; conditions: Streptococcus pneumoniae; lowest concentration reducing growth by 80% or more; 37° C., 24 hrs
From the text: as §1

Chain of S. pneumoniae Topoisomerase IV ATPase (ParE) (Q59961 whole entry): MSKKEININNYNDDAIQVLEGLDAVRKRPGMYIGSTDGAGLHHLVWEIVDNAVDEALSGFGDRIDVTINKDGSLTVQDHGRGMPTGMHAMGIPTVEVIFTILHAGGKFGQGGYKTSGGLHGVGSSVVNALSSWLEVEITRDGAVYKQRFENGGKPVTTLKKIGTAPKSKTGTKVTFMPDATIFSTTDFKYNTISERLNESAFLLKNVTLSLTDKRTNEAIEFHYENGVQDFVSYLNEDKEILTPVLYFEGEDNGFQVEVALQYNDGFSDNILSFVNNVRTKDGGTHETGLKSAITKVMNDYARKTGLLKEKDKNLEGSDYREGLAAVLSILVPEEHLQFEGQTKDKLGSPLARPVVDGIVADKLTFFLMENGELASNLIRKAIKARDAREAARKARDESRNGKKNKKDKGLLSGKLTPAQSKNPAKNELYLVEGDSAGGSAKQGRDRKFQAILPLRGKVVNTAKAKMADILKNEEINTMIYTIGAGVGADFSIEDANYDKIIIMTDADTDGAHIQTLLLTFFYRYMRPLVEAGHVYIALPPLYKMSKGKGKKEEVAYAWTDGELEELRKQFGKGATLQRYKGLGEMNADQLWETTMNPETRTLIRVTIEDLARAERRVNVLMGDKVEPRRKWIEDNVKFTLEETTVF

O=C(O)c1ccc(-c2cnc(Nc3ccc(F)c(Cl)c3)nc2N2CCOCC2)s1 [Example 176, 5-(2-(3-chloro-4-fluorophenylamino)-4-morpholinopyrimidin-5-yl)thiophene-2-carboxylic acid]
inhibition at 13 µM [1]: 89% | MIC (Spy 838 (gram+)): 12.5 µM (≈ 5.44 µg/mL) | MIC (Mca 445 (gram−)): 0.78 µM (≈ 0.339 µg/mL) | MIC (Spn 548 (gram+)): 6.25 µM (≈ 2.72 µg/mL)

NCCCNc1nc(Nc2ccc(F)c(Cl)c2)ncc1-c1cncnc1 [Ex 211]
inhibition at 13 µM [1]: 76.6% | MIC (Spy 838 (gram+)): 25 µM (≈ 9.35 µg/mL) | MIC (Mca 445 (gram−)): 12.5 µM (≈ 4.67 µg/mL) | MIC (Spn 548 (gram+)): 25 µM (≈ 9.35 µg/mL)

Fc1ccc(Nc2ncc(-c3cncnc3)c(NCCc3ccncc3)n2)cc1Cl [Example 46, N^2-(3-chloro-4-fluorophenyl)-N^4-(2-pyridin-4-ylethyl)-5-pyrimidin-5-ylpyrimidine-2,4-diamine]
inhibition at 13 µM [1]: 93.5% | MIC (Spy 838 (gram+)): 8.84 µM (≈ 3.73 µg/mL) | MIC (Mca 445 (gram−)): 3.13 µM (≈ 1.32 µg/mL) | MIC (Spn 548 (gram+)): 3.13 µM (≈ 1.32 µg/mL)

CCOC(=O)/C=C/c1cccc(-c2cnc(Nc3ccc(F)c(Cl)c3)nc2N[C@@H]2CCOC2)c1 [Example 169, (R,E)-ethyl 3-(3-(2-(3-chloro-4-fluorophenylamino)-4-(tetrahydrofuran-3-ylamino)pyrimidin-5-yl)phenyl)acrylate]
inhibition at 13 µM [1]: 34.2%

CCCS(=O)(=O)NC(=O)c1cc(-c2cnc(Nc3cc(C)cc(C)c3)nc2-n2ccc(C(F)(F)F)n2)cnc1OC [Example 824, 5-{2-[(3,5-dimethylphenyl)amino]-4-[3-(trifluoromethyl)-1H-pyrazol-1-yl]pyrimidin-5-yl}-2-methoxy-N-(propylsulfonyl)pyridine-3-carboxamide]
inhibition at 13 µM [1]: 100%

O=C(O)/C=C/c1cccc(-c2cnc(Nc3ccc(F)c(Cl)c3)nc2NCCn2ccnc2)c1 [Example 266, (2E)-3-[3-(2-[(3-chloro-4-fluorophenyl)amino]-4-{[2-(1H-imidazol-1-yl)ethyl]amino}pyrimidin-5-yl)phenyl]prop-2-enoic acid]
inhibition at 13 µM [1]: 109%

COc1cc(Cl)c(C)cc1Nc1ncc(-c2ccc(C(=O)O)s2)c(NCCCN(C)C)n1 [Example 342, 5-(2-(4-chloro-2-methoxy-5-methylphenylamino)-4-(3-(dimethylamino)propylamino)pyrimidin-5-yl) thiophene-2-carboxylic acid]
inhibition at 13 µM [1]: 77%

CN(C)CCCNc1nc(Nc2ccc(F)c(F)c2)ncc1-c1cccc(/C=C/C(=O)O)c1 [Example 336, (E)-3-(3-(2-(3,4-difluorophenylamino)-4-(3-(dimethylamino)propylamino)pyrimidin-5-yl)phenyl)acrylic acid]
inhibition at 13 µM [1]: 83.7%

CCOC(=O)/C=C/c1cccc(-c2cnc(Nc3ccc(F)c(Cl)c3)nc2N2CCN(C)CC2)c1 [Example 170, (E)-ethyl 3-(3-(2-(3-chloro-4-fluorophenylamino)-4-(4-methylpiperazin-1-yl)pyrimidin-5-yl)phenyl)acrylate]
inhibition at 13 µM [1]: 46%

COc1ncc(-c2cnc(Nc3cc(C)cc(Cl)c3)nc2-n2ccc(C(F)(F)F)n2)cc1C(=O)O [Example 799, 5-{2-[(3-chloro-5-methylphenyl)amino]-4-[3-(trifluoromethyl)-1H-pyrazol-1-yl]pyrimidin-5-yl}-2-methoxypyridine-3-carboxylic acid]
inhibition at 13 µM [1]: 100%

COCCCNc1nc(Nc2ccc(F)c(Cl)c2)ncc1-c1nc(-c2ccncc2)cs1 [Example 500, N^2-(3-chloro-4-fluorophenyl)-N^4-(3-methoxypropyl)-5-[4-(pyridin-4-yl)-1,3-thiazol-2-yl]pyrimidine-2,4-diamine]
inhibition at 13 µM [1]: 83%

CCS(=O)(=O)NC(=O)c1cc(-c2cnc(Nc3ccc(F)c(Cl)c3)nc2-n2nc(C(F)(F)F)cc2C)cnc1OC [Example 1017, 5-(2-(3-Chloro-4-fluorophenylamino)-4-(5-methyl-3-(trifluoromethyl)-1H-pyrazol-1-yl)pyrimidin-5-yl)-N-(ethylsulfonyl)-2-methoxynicotinamide]
inhibition at 13 µM [1]: 90%

COc1cc(Nc2ncc(-c3cccnc3)c(-n3nc(C(F)(F)F)cc3C)n2)cc(C(F)(F)F)c1 [Example 884, N-(3-methoxy-5-(trifluoromethyl)phenyl)-4-(5-methyl-3-(trifluoromethyl)-1H-pyrazol-1-yl)-5-(pyridin-3-yl)pyrimidin-2-amine]
inhibition at 13 µM [1]: 100%

O=C(O)/C=C/c1cccc(-c2cnc(Nc3cccc4cc[nH]c34)nc2N2CCOCC2)c1 [Example 517, (2E)-3-{3-[2-(1H-indol-7-ylamino)-4-(morpholin-4-yl)pyrimidin-5-yl]phenyl}prop-2-enoic acid]
inhibition at 13 µM [1]: 100%

Cc1cc(C)n(-c2nc(Nc3ccc(F)c(Cl)c3)ncc2-c2cncc(C(=O)O)c2)n1 [Example 316, 5-{2-[(3-chloro-4-fluorophenyl)amino]-4-(3,5-dimethyl-1H-pyrazol-1-yl)pyrimidin-5-yl}pyridine-3-carboxylic acid]
inhibition at 13 µM [1]: 80%

Cc1cc(F)cc(Nc2ncc(-c3cncc(C(=O)O)c3)c(-n3nc(C(F)(F)F)cc3C)n2)c1 [Example 771, 5-{2-[(3-fluoro-5-methylphenyl)-amino]-4-[5-methyl-3-(trifluoromethyl)-1H-pyrazol-1-yl]pyrimidin-5-yl}pyridine-3-carboxylic acid]
inhibition at 13 µM [1]: 100%

CCn1cc(-c2cnc(Nc3cc(C)cc(OC)c3)nc2-n2nc(C(F)(F)F)cc2C)cc(C(=O)O)c1=O [Example 863, 1-ethyl-5-{2-[(3-methoxy-5-methylphenyl)amino]-4-[5-methyl-3-(trifluoromethyl)-1H-pyrazol-1-yl]pyrimidin-5-yl}-2-oxo-1,2-dihydropyridine-3-carboxylic acid]
inhibition at 13 µM [1]: 100%

From US20100137313A1 (ASTRAZENECA AB, priority 2008, published 2010)
